Results reported in US20070123546A1, “2-amino-7,8-dihydro-6H-pyrido[4,3-d]pyrimidin-5-ones” (Chiron Corporation, priority 2005, published 2007).

target: His-tagged N-terminal ATP binding domain (amino acid residues 9-236) of HSP90α (Homo sapiens, UniProt P07900); test: HSP90 inhibitor binding potency: TRF competition binding assay; conditions: Table 1; competition with biotinylated radicicol
Procedure: HSP90 Inhibitor Binding Potency: TRF Binding Assay
In this example, the binding potency of HSP90 inhibitors as measured by a TRF binding assay is described.
TRF competition binding assays were performed to determine the binding potency (IC50 values) of HSP90 inhibitors. Purified His-tagged N-terminal ATP binding domain (amino acid residues 9-236) of HSP90α (HSP90α GeneID: 3320; mRNA Sequence NM_005348) was incubated for two hours at room temperature in binding buffer (50 mM HEPES, 6 mM MgCl2, 20 mM KCl and 0.1% BSA) with biotinylated radicicol and progressively higher concentrations of the competing compounds. A fraction of the mixture was transferred to capture plates (coated with streptavidin) and incubated for one hour at room temperature. After washing with DELFIA wash buffer, europium-labeled anti-his antibody was added and incubated for two hours at room temperature, followed by washing with DELFIA buffer. DELFIA enhancement solution was then added. After gentle shaking for 10 minutes, the plates were read in VICTOR for europium counts.

| IC50 | SMILES |
| --- | --- |
| < 10 µM | COc1cncc(-c2cc(F)ccc2C2Cc3nc(N)nc(C)c3C(=O)N2C)n1 (centres unmarked) [Compound 12, 2-Amino-7-[4-fluoro-2-(6-methoxy-pyrazin-2-yl)-phenyl]-4,6-dimethyl-7,8-dihydro-6H-pyrido[4,3-d]pyrimidin-5-one] |
| < 10 µM | Cc1nc(N)nc2c1C(=O)N[C@@H](c1ccccc1-c1cccnc1F)C2 [Compound 1, (R)-2-Amino-7-[2-(2-fluoro-pyridin-3-yl)-phenyl]-4-methyl-7,8-dihydro-6H-pyrido[4,3-d]pyrimidin-5-one] |
| > 10 µM | COc1ccc([C@H](C)N2C(=O)c3c(C)nc(N)nc3C[C@@H]2c2ccc(F)cc2Br)cc1 [Compound 4, (R)-2-Amino-7-(2-bromo-4-fluoro-phenyl)-6-[(S)-1-(4-methoxy-phenyl)-ethyl]-4-methyl-7,8-dihydro-6H-pyrido[4,3-d]pyrimidin-5-one] |
| < 10 µM | Cc1nc(N)nc2c1C(=O)NC(c1ccc(F)cc1-c1cnccc1Cl)C2 (centres unmarked) [Compound 20, 2-Amino-7-[2-(4-chloro-pyridin-3-yl)-4-fluoro-phenyl]-4-methyl-7,8-dihydro-6H-pyrido[4,3-d]pyrimidin-5-one] |
| < 10 µM | Cc1nc(N)nc2c1C(=O)NC(c1ccc(F)cc1-c1cccc(F)c1)C2 (centres unmarked) [Compound 19, 2-Amino-7-(5,3′-difluoro-biphenyl-2-yl)-4-methyl-7,8-dihydro-6H-pyrido[4,3-d]pyrimidin-5-one] |
| < 10 µM | COc1cncc(-c2cc(F)ccc2[C@H]2Cc3nc(N)nc(C)c3C(=O)N2)n1 [Compound 11, (R)-2-Amino-7-[4-fluoro-2-(6-methoxy-pyrazin-2-yl)-phenyl]-4-methyl-7,8-dihydro-6H-pyrido[4,3-d]pyrimidin-5-one] |
| < 10 µM | COc1cncc(-c2ccccc2C2Cc3nc(N)nc(C)c3C(=O)N2)n1 (centres unmarked) [Compound 10, 2-Amino-7-[2-(6-methoxy-pyrazin-2-yl)-phenyl]-4-methyl-7,8-dihydro-6H-pyrido[4,3-d]pyrimidin-5-one] |
| < 10 µM | Cc1nc(N)nc2c1C(=O)NC(c1ccc(F)cc1-c1ccccc1F)C2 (centres unmarked) [Compound 14, 2-Amino-7-(5,2′-difluoro-biphenyl-2-yl)-4-methyl-7,8-dihydro-6H-pyrido[4,3-d]pyrimidin-5-one] |

same assay, conditions: Table 2; competition with biotinylated radicicol

| IC50 | SMILES |
| --- | --- |
| < 10 µM | CCc1nc(N)nc2c1C(=O)N[C@@H](c1ccc(F)cc1-c1csc(OC)n1)C2 [Compound 84, (R)-2-Amino-4-ethyl-7-[4-fluoro-2-(2-methoxy-thiazol-4-yl)-pbenyl]-7,8-dihydro-6H-pyrido[4,3-d]pyrimidin-5-one] |
| < 10 µM | COc1ccccc1-c1cc(F)ccc1[C@H]1Cc2nc(N)ncc2C(=O)N1 [Compound 54, (R)-2-Amino-7-(5-fluoro-2′-methoxy-biphenyl-2-yl)-7,8-dihydro-6H-pyrido[4,3-d]pyrimidin-5-one] |
| < 10 µM | COc1nc(-c2cc(F)ccc2[C@H]2Cc3nc(N)nc(C)c3C(=O)N2)ccc1N [Compound 44, (R)-2-Amino-7-[2-(5-amino-6-methoxy-pyridin-2-yl)-4-fluoro-phenyl]-4-methyl-7,8-dihydro-6H-pyrido[4,3-d]pyrimidin-5-one] |
| < 10 µM | COc1cncc(-c2scnc2[C@H]2Cc3nc(N)nc(C)c3C(=O)N2)n1 [Compound 88, (R)-2-Amino-7-[5-(6-methoxy-pyrazin-2-yl)-thiazol-4-yl]-4-methyl-7,8-dihydro-6H-pyrido[4,3-d]pyrimidin-5-one] |
| < 10 µM | CCOc1nc(-c2cc(F)ccc2[C@H]2Cc3nc(N)nc(C)c3C(=O)N2)cnc1N [Compound 75, (R)-2-Amino-7-[2-(5-amino-6-ethoxy-pyrazin-2-yl)-4-fluoro-phenyl]-4-methyl-7,8-dihydro-6H-pyrido[4,3-d]pyrimidin-5-one] |
| < 10 µM | COc1cncc(-c2cc(F)ccc2[C@H]2Cc3nc(N)ncc3C(=O)N2)n1 [Compound 53, (R)-2-Amino-7-[4-fluoro-2-(6-methoxy-pyrazin-2-yl)-phenyl]-7,8-dihydro-6H-pyrido[4,3-d]pyrimidin-5-one] |

same assay, conditions: Table 3; competition with biotinylated radicicol

| IC50 | SMILES |
| --- | --- |
| < 10 µM | CCN1C(=O)c2c(C)nc(N)nc2C[C@@H]1c1ccc(F)cc1-c1cccnc1 [Compound 110, (R)-2-Amino-6-ethyl-7-(4-fluoro-2-pyridin-3-yl-phenyl)-4-methyl-7,8-dihydro-6H-pyrido[4,3-d]pyrimidin-5-one] |
| > 10 µM | CCN1C(=O)c2c(C)nc(N)nc2C[C@@H]1c1ccc(F)cc1-c1cnc(OC)nc1OC [Compound 111, (R)-2-Amino-7-[2-(2,4-dimethoxy-pyrimidin-5-yl)-4-fluoro-phenyl]-6-ethyl-4-methyl-7,8-dihydro-6H-pyrido[4,3-d]pyrimidin-5-one] |
| < 10 µM | CCN1C(=O)c2c(C)nc(N)nc2C[C@@H]1c1ccc(F)cc1-c1cccc(OC)n1 [Compound 106, (R)-2-Amino-6-ethyl-7-[4-fluoro-2-(6-methoxy-pyridin-2-yl)-phenyl]-4-methyl-7,8-dihydro-6H-pyrido[4,3-d]pyrimidin-5-one] |
| < 10 µM | COc1cncc(-c2cc(F)ccc2[C@H]2Cc3nc(N)nc(C)c3C(=O)N2CC(C)C)n1 [Compound 154, (R)-2-Amino-7-[4-fluoro-2-(6-methoxy-pyrazin-2-yl)-phenyl]-6-isobutyl-4-methyl-7,8-dihydro-6H-pyrido[4,3-d]pyrimidin-5-one] |
| < 10 µM | COc1nc(-c2ccccc2[C@H]2Cc3nc(N)nc(C)c3C(=O)N2)cnc1N [Compound 104, (R)-2-Amino-7-[2-(5-amino-6-methoxy-pyrazin-2-yl)-phenyl]-4-methyl-7,8-dihydro-6H-pyrido[4,3-d]pyrimidin-5-one] |
| < 10 µM | COc1nc(-c2cc(F)ccc2[C@H]2Cc3nc(N)nc(C)c3C(=O)N2Cc2ccncc2)cnc1N [Compound 122, (R)-2-Amino-7-[2-(5-amino-6-methoxy-pyrazin-2-yl)-4-fluoro-phenyl]-4-methyl-6-pyridin-4-ylmethyl-7,8-dihydro-6H-pyrido[4,3-d]pyrimidin-5-one] |
| > 10 µM | COc1ccc(-c2cc(F)ccc2[C@H]2Cc3nc(N)nc(C)c3C(=O)N2Cc2ccccc2)cc1F [Compound 139, (R)-2-Amino-6-benzyl-7-(5,3′-difluoro-4′-methoxy-biphenyl-2-yl)-4-methyl-7,8-dihydro-6H-pyrido[4,3-d]pyrimidin-5-one] |
| > 10 µM | COc1ccncc1-c1cc(F)ccc1[C@H]1Cc2nc(N)nc(C)c2C(=O)N1CC(C)C [Compound 159, (R)-2-Amino-7-[4-fluoro-2-(4-methoxy-pyridin-3-yl)-phenyl]-6-isobutyl-4-methyl-7,8-dihydro-6H-pyrido[4,3-d]pyrimidin-5-one] |
| < 10 µM | Cc1nc(N)nc2c1C(=O)N[C@@H](c1ccccc1)C2 [Compound 103, (R)-2-Amino-4-methyl-7-phenyl-7,8-dihydro-6H-pyrido[4,3-d]pyrimidin-5-one] |
| < 10 µM | COc1cncc(-c2cc(F)ccc2[C@H]2Cc3nc(N)nc(C)c3C(=O)N2Cc2cccc(C(F)(F)F)c2)n1 [Compound 127, (R)-2-Amino-7-[4-fluoro-2-(6-methoxy-pyrazin-2-yl)-phenyl]-4-methyl-6-(3-trifluoromethyl-benzyl)-7,8-dihydro-6H-pyrido[4,3-d]pyrimidin-5-one] |
| > 10 µM | COc1ncc(-c2cc(F)ccc2[C@H]2Cc3nc(N)nc(C)c3C(=O)N2Cc2ccccc2)c(OC)n1 [Compound 141, (R)-2-Amino-6-benzyl-7-[2-(2,4-dimethoxy-pyrimidin-5-yl)-4-fluoro-phenyl]-4-methyl-7,8-dihydro-6H-pyrido[4,3-d]pyrimidin-5-one] |

same assay, conditions: Table 4; competition with biotinylated radicicol

| IC50 | SMILES |
| --- | --- |
| ≥ 10 µM | Cc1nc(N)nc2c1C(=O)N[C@@H](c1ccccc1Br)C2 [Compound 184, (R)-2-Amino-7-(2-bromo-phenyl)-4-methyl-7,8-dihydro-6H-pyrido[4,3-d]pyrimidin-5-one] |
| < 10 µM | COc1nc(-c2cc(F)ccc2[C@H]2Cc3nc(N)nc(C)c3C(=O)N2)ncc1Cl [Compound 202, (R)-2-Amino-7-[2-(5-chloro-4-methoxy-pyrimidin-2-yl)-4-fluoro-phenyl]-4-methyl-7,8-dihydro-6H-pyrido[4,3-d]pyrimidin-5-one] |
| < 10 µM | COc1cccc(-c2ccccc2[C@H]2Cc3nc(N)ncc3C(=O)N2)n1 [Compound 206, (R)-2-Amino-7-[2-(6-methoxy-pyridin-2-yl)-phenyl]-7,8-dihydro-6H-pyrido[4,3-d]pyrimidin-5-one] |
| < 10 µM | COc1ncc(-c2ccccc2[C@H]2Cc3nc(N)nc(C)c3C(=O)N2)nc1OC [Compound 189, (R)-2-Amino-7-[2-(5,6-dimethoxy-pyrazin-2-yl)-phenyl]-4-methyl-7,8-dihydro-6H-pyrido[4,3-d]pyrimidin-5-one] |
| < 10 µM | COc1cncc(-c2scnc2[C@H]2Cc3nc(N)nc(C)c3C(=O)N2)n1 [Compound 186, (R)-2-Amino-7-[5-(6-methoxy-pyrazin-2-yl)-thiazol-4-yl]-4-methyl-7,8-dihydro-6H-pyrido[4,3-d]pyrimidin-5-one] |
| < 10 µM | Cc1ccc(-c2cc(F)ccc2[C@H]2Cc3nc(N)ncc3C(=O)N2)cc1 [Compound 182, (R)-2-Amino-7-(5-fluoro-4′-methyl-biphenyl-2-yl)-7,8-dihydro-6H-pyrido[4,3-d]pyrimidin-5-one] |
| < 10 µM | CCOc1nc(-c2cc(F)ccc2[C@H]2Cc3nc(N)nc(C)c3C(=O)N2)cnc1N [Compound 196, (R)-2-Amino-7-[2-(5-amino-6-ethoxy-pyrazin-2-yl)-4-fluoro-phenyl]-4-methyl-7,8-dihydro-6H-pyrido[4,3-d]pyrimidin-5-one] |
